Test system: human female patients diagnosed as having adenomyosis
Assay: human clinical trial in adenomyosis (single-patient longitudinal case study and multi-patient analysis, n = 6)
Format: in vivo
Settings: single patient
Text: This examples describes the results of a human clinical trial conducted to evaluate the ability of a GnRH antagonist, 3-[2-fluoro-5-(2,3-difluoro-6-methoxybenzyloxy)4-methoxyphenyl]-2,4-dioxo-1,2,3,4-tetrahydrothieno [3,4d]pyrimidine-5-carboxylic acid (represented by formula (VI)), or a pharmaceutically acceptable salt thereof, to treat adenomyosis, an estrogen-dependent disease, in human patients diagnosed as having this condition.
One aim of this study was to investigate the ability of the GnRH antagonist to maintain its therapeutic effects despite being administered to patients in a progressively lower dosage throughout the trial. To this end, the patients treated in this study was first administered the GnRH antagonist of formula (VI) in an amount of 200 mg/day during an initial 12-week period. The GnRH antagonist was then administered to the patients in a reduced amount of 100 mg/day during a subsequent 12-week period. The patients' responsiveness to the GnRH antagonist was monitored throughout the study.
In addition to assessing the effectiveness of the GnRH antagonist when administered at lower doses, another aim of this study was to evaluate the ability of the GnRH antagonist to sustain its therapeutic effects even after treatment was ceased altogether. Accordingly, after being periodically administered the GnRH antagonist of formula (VI) over the course of 24 weeks, first in an amount of 200 mg/day and then in an amount of 100 mg/day, treatment with the GnRH antagonist was halted entirely. The patients were then monitored during a post-treatment follow-up period to analyze the extent to which the therapeutic effects of the compound were sustained.
To test the effects of compound (VI), a total of n=6 human female patients diagnosed as having adenomyosis were administered compound (VI) in accordance with the dosing schedule described above. One of these patients in particular was closely monitored beginning well before their treatment with compound (VI) was initiated. The specific results of this patient's therapy are described in the section entitled “Single-Patient Longitudinal Case Study,” below. The cumulative set of results for all 6 patients is reported in the section entitled “Multi-Patient Analysis,” below.
As part of the clinical trial, a case study was conducted in which a single patient of reproductive age having clinically diagnosed adenomyosis was monitored during the course of treatment with compound (VI). The patient was nulliparous. Two years before the study began, the patient presented with heavy menstrual bleeding, pelvic pain, and dysmenorrhea. […] Their gynecologist prescribed ulipristal acetate (UPA), a selective progesterone receptor modulator (SPRM), to be administered in an amount of 5 mg/day over the course of a treatment period lasting three months.
The patient was then recommended for treatment with the GnRH antagonist represented by formula (VI) herein. Accordingly, the patient was orally administered compound (VI) in an amount of 200 mg/day for three months. Following this initial three-month period, the patient was orally administered compound (VI) in a reduced amount of 100 mg/day for a subsequent three-period. During both treatment periods, compound (VI) was administered to the patient in the form of a choline salt.
The patient was recommended for once-daily treatment with the GnRH antagonist of formula (VI). Accordingly, the patient was administered the GnRH antagonist of formula (VI) in an amount of 200 mg/day during a first treatment period, which lasted three months. At the conclusion of the first treatment period, the patient began a second treatment period in which they were administered compound (VI) in a reduced amount of 100 mg/day for three months. During both treatment periods, compound (VI) was administered to the patient in the form of a choline salt. […]

bleeding during treatment (5 mg/day for three months): breakthrough bleeding and spotting
Compound: CC(=O)O[C@]1(C(C)=O)CC[C@H]2[C@@H]3CCC4=CC(=O)CCC4=C3[C@@H](c3ccc(N(C)C)cc3)C[C@@]21C [UPA, ulipristal acetate, reference compound]
symptoms of pelvic pain and dysmenorrhea (5 mg/day for three months, before compound (VI)): worsened
adenomyotic lesions by MRI (end of 5 mg/day three-month course, FIG. 4B): significantly increased quantity of adenomyotic lesions

Source: patent US20220305017A1, “COMPOSITIONS AND METHODS FOR THE TREATMENT OF ESTROGEN-DEPENDENT DISORDERS” (ObsEva S.A., priority 2019, published 2022)
